Measured values: ChEMBL document CHEMBL3758098, “3-(Dipropylamino)-5-hydroxybenzofuro[2,3-f]quinazolin-1(2H)-one (DPA-HBFQ-1) plays an inhibitory role on breast cancer cell growth and progression” (Eur J Med Chem, 2016)
pIC50: −log10 of the molar value. The source made the active and inactive calls. The calls are words filed in the database; no cut-off is given here.

Columns and labels:
[1] = target: Cellular tumor antigen p53 (Homo sapiens) (UniProt P04637); experiment: Activation of p53 in human MCF7 cells assessed as upregulation of […]/WAF1 mRNA expression at 1 uM after 12 hrs by RT-PCR analysis; assay type: cell-based
Sequence of Cellular tumor antigen p53 (Homo sapiens) (P04637 whole entry, looked up): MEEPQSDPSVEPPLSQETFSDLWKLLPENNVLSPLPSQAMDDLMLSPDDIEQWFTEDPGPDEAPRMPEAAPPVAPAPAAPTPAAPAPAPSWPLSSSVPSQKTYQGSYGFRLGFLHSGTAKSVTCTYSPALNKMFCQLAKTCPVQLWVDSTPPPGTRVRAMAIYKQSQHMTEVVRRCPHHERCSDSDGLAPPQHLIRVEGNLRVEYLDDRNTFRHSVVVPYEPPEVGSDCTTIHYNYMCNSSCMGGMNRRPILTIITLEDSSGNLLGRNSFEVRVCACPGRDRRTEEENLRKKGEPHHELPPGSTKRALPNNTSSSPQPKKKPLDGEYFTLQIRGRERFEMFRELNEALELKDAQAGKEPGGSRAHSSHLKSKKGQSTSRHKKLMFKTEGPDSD

[2] = Cytotoxicity against rat R2C cells assessed as growth inhibition by MTT assay; assay type: functional, cell-based
[3] = Cytotoxicity against human MCF10A cells assessed as cell viability after 5 days by MTT assay; assay type: cell-based; settings: MCF-10A, 120 h
[4] = Cytotoxicity against human MCF10A cells assessed as growth inhibition at 1 uM after 5 days by MTT assay relative to vehicle-treated control; assay type: cell-based; settings: mcf-10a, 120 h
HeLa = experiment: Cytotoxicity against human HeLa cells assessed as growth inhibition by MTT assay; assay type: functional, cell-based
[5] = target: Cellular tumor antigen p53 (Homo sapiens) (UniProt P04637); experiment: Activation of p53 in human MCF7 cells assessed as upregulation of […]/WAF1 mRNA expression at 0.1 uM after 12 hrs by RT-PCR analysis; assay type: cell-based
MCF7 [6] = experiment: Cytotoxicity against human MCF7 cells assessed as growth inhibition at 1 uM after 5 days by MTT assay relative to vehicle-treated control; assay type: functional; settings: MCF7, 120 h, read-out: GI
[7] = Upregulation of p53 expression in human MCF-7 TR1 cells at 1 uM after 48 hrs by Western blot analysis; assay type: functional, cell-based
[8] = target: Cellular tumor antigen p53 (Homo sapiens) (UniProt P04637); experiment: Activation of p53 in human MCF7 cells assessed as upregulation of […]/WAF1 gene expression at 0.1 uM after 24 hrs by dual luciferase reporter gene assay; assay type: cell-based
MDA-MB-231 [9] = experiment: Upregulation of p53 expression in human MDA-MB-231 cells after 48 hrs by Western blot analysis; assay type: functional, cell-based
MCF7 [10] = experiment: Induction of p53 consensus sequences deficient […]/WAF1 promoter activity in human MCF7 cells at 1 uM after 24 hrs by dual luciferase reporter gene assay; assay type: cell-based
[11] = target: Cellular tumor antigen p53 (Homo sapiens) (UniProt P04637); experiment: Activation of p53 in human MDA-MB-231 cells assessed as upregulation of […]/WAF1 mRNA expression at 0.1 uM after 12 hrs by RT-PCR analysis; assay type: cell-based
MCF7 [12] = experiment: Upregulation of p53 expression in human MCF7 cells after 48 hrs by Western blot analysis; assay type: functional, cell-based
MDA-MB-231 [13] = experiment: Upregulation of p53 mRNA expression in human MDA-MB-231 cells at 0.1 to 1 uM after 12 hrs by RT-PCR analysis; assay type: functional, cell-based
[14] = Upregulation of p53 expression in human MCF10A cells at 1 uM after 48 hrs by Western blot analysis; assay type: ADME, cell-based; settings: mcf-10a
[15] = target: Cellular tumor antigen p53 (Homo sapiens) (UniProt P04637); experiment: Activation of p53 in human MCF7 cells assessed as upregulation of […]/WAF1 expression after 48 hrs by Western blot analysis; assay type: cell-based
MDA-MB-231 [16] = experiment: Cytotoxicity against human MDA-MB-231 cells assessed as cell viability after 5 days by MTT assay; assay type: functional, cell-based; settings: MDA-MB-231, 120 h
[17] = target: Cellular tumor antigen p53 (Homo sapiens) (UniProt P04637); experiment: Activation of p53 in human MCF7 cells assessed as upregulation of […]/WAF1 gene expression at 1 uM by dual luciferase reporter gene assay in presence of p53 siRNA; assay type: cell-based
MDA-MB-231 [18] = experiment: Cytotoxicity against human MDA-MB-231 cells assessed as reduction of colony formation at 1 uM after 14 days by MTT staining-based anchorage-independant soft agar assay; assay type: functional, cell-based
[19] = Upregulation of p53 expression in human MCF-7 TR1 cells at 0.1 uM after 48 hrs by Western blot analysis; assay type: functional, cell-based
MCF7 [20] = experiment: Induction of p53 consensus sequences deficient […]/WAF1 promoter activity in human MCF7 cells at 0.1 uM after 24 hrs by dual luciferase reporter gene assay; assay type: cell-based
MDA-MB-231 [21] = experiment: Cytotoxicity against human MDA-MB-231 cells assessed as reduction of colony formation at 0.1 uM after 14 days by MTT staining-based anchorage-independant soft agar assay; assay type: functional, cell-based
[22] = target: Cellular tumor antigen p53 (Homo sapiens) (UniProt P04637); experiment: Activation of p53 in human MCF7 cells assessed as upregulation of […]/WAF1 gene expression at 1 uM after 24 hrs by dual luciferase reporter gene assay; assay type: cell-based
MCF7 [23] = experiment: Cytotoxicity against human MCF7 cells assessed as reduction of colony formation at 1 uM after 14 days by MTT staining-based anchorage-independant soft agar assay; assay type: functional, cell-based
MCF-7 TR1 [24] = experiment: Cytotoxicity against human MCF-7 TR1 cells assessed as reduction of cell vitality at 0.1 to 1 uM after 3 to 5 days by MTT assay; assay type: functional, cell-based
MCF7 [25] = experiment: Induction of apoptosis in human MCF7 cells assessed as PARP proteolysis at 1 uM after 48 hrs by Western blot analysis; assay type: functional, cell-based
MCF7 [26] = experiment: Cytotoxicity against human MCF7 cells assessed as reduction of colony formation at 0.1 uM after 14 days by MTT staining-based anchorage-independant soft agar assay; assay type: functional, cell-based
[27] = target: Cellular tumor antigen p53 (Homo sapiens) (UniProt P04637); experiment: Activation of p53 in human MCF-7 TR1 cells assessed as upregulation of […]/WAF1 gene expression at 0.1 uM after 48 hrs by Western blot analysis; assay type: cell-based
[28] = target: DNA topoisomerase 2-alpha (Homo sapiens) (UniProt P11388); experiment: Inhibition of human topoisomerase 2 assessed as decatenation of kDNA after 30 mins by agarose gel electrophoresis
Sequence of DNA topoisomerase 2-alpha (Homo sapiens) (P11388 whole entry): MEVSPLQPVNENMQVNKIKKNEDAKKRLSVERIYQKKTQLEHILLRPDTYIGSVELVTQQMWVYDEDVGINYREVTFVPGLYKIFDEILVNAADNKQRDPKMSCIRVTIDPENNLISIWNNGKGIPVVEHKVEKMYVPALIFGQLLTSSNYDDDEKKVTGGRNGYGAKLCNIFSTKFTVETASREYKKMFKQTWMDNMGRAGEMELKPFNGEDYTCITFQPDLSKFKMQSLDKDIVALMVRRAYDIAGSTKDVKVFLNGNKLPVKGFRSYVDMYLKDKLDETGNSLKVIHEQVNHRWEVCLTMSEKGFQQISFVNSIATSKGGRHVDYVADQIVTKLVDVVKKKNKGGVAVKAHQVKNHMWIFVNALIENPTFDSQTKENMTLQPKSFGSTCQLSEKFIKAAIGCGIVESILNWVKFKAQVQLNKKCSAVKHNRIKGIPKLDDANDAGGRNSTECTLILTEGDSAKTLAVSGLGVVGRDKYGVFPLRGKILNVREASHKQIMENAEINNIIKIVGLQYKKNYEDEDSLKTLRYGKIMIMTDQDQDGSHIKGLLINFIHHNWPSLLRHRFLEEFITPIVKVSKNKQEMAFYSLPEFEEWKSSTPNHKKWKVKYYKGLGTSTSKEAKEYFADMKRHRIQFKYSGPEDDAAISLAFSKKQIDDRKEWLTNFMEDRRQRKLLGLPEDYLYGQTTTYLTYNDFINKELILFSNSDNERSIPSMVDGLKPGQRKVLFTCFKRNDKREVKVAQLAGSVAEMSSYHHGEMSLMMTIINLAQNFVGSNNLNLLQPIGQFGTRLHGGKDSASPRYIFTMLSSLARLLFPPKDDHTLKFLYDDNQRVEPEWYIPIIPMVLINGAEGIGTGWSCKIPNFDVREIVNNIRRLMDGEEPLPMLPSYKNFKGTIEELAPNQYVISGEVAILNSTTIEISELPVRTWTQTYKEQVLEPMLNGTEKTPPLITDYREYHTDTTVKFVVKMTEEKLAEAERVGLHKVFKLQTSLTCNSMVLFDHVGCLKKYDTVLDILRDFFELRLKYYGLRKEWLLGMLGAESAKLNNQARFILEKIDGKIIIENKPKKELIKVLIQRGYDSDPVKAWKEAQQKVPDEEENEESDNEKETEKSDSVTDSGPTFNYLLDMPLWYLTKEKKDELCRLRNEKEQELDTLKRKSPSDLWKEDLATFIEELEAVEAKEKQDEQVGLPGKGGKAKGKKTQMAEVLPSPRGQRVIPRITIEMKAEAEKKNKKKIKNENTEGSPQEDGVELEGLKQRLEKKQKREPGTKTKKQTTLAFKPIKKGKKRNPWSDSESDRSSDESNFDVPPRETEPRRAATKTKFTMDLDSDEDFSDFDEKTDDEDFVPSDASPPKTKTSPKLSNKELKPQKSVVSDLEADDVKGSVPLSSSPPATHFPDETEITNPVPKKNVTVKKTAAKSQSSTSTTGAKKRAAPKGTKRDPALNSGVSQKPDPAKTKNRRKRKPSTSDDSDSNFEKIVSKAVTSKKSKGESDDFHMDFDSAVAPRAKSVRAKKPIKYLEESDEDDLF

MCF-7 TR1 [29] = experiment: Cytotoxicity against human MCF-7 TR1 cells assessed as reduction of colony formation at 1 uM after 14 days by MTT staining-based anchorage-independant soft agar assay; assay type: functional, cell-based
MCF7 [30] = experiment: Induction of apoptosis in human MCF7 cells assessed as DNA fragmentation at 1 uM after 48 hrs by DNA laddering assay; assay type: functional, cell-based
MCF7 [31] = experiment: Upregulation of p53 mRNA expression in human MCF7 cells at 0.1 to 1 uM after 12 hrs by RT-PCR analysis; assay type: functional, cell-based
[32] = target: Cellular tumor antigen p53 (Homo sapiens) (UniProt P04637); experiment: Activation of p53 in human MDA-MB-231 cells assessed as upregulation of […]/WAF1 mRNA expression at 1 uM after 12 hrs by RT-PCR analysis; assay type: cell-based
[33] = target: Cellular tumor antigen p53 (Homo sapiens) (UniProt P04637); experiment: Activation of p53 in human MCF7 cells assessed as upregulation of […]/WAF1 gene expression at 0.1 to 1 uM after 24 hrs by dual luciferase reporter gene assay; assay type: cell-based
MCF-7 TR1 [34] = experiment: Induction of apoptosis in human MCF-7 TR1 cells assessed as DNA fragmentation at 1 uM after 48 hrs by DNA laddering analysis; assay type: functional, cell-based
Ishikawa = experiment: Cytotoxicity against human Ishikawa cells assessed as growth inhibition by MTT assay; assay type: functional, cell-based
[35] = target: T1, DNA topoisomerase 1 (Homo sapiens) (UniProt P11387); experiment: Inhibition of recombinant human topoisomerase 1 assessed as relaxation of supercoiled pHOT1 at 50 uM after 30 mins by agarose gel electrophoresis
T1 sequence (whole entry): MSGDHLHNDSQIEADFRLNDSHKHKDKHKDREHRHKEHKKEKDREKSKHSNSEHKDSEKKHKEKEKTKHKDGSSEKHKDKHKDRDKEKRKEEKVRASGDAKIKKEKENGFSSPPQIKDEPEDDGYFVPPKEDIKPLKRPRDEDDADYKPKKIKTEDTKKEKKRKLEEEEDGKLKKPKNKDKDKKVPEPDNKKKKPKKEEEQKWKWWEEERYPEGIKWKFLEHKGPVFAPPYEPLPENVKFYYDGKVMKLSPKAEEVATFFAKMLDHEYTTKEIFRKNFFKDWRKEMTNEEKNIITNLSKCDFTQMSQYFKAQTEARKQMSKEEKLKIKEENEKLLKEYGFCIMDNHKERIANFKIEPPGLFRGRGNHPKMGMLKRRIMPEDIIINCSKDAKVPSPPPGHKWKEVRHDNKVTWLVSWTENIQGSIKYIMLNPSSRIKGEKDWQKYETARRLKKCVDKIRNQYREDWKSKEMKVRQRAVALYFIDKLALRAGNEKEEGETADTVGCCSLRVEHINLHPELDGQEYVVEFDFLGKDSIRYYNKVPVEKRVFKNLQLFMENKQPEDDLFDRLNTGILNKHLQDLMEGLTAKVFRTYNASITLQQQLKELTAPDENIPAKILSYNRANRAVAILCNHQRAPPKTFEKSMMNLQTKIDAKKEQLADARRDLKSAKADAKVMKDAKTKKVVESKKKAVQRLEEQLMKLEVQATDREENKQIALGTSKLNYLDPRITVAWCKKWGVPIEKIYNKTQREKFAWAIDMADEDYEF

MCF-7 TR1 [36] = experiment: Induction of apoptosis in human MCF-7 TR1 cells assessed as PARP proteolysis at 1 uM after 48 hrs by Western blot analysis; assay type: functional, cell-based
[37] = Upregulation of p53 expression in human MCF10A cells at 0.1 uM after 48 hrs by Western blot analysis; assay type: ADME, cell-based; settings: mcf-10a
MCF7 [38] = experiment: Cytotoxicity against human MCF7 cells assessed as cell viability after 5 days by MTT assay; assay type: functional, cell-based; settings: MCF7, 120 h
MDA-MB-231 [39] = experiment: Induction of apoptosis in human MDA-MB-231 cells assessed as DNA fragmentation at 1 uM after 48 hrs by DNA laddering assay; assay type: functional, cell-based
[40] = target: Cellular tumor antigen p53 (Homo sapiens) (UniProt P04637); experiment: Activation of p53 in human MDA-MB-231 cells assessed as upregulation of […]/WAF1 expression after 48 hrs by Western blot analysis; assay type: cell-based
HepG2 = experiment: Cytotoxicity against human HepG2 cells assessed as growth inhibition by MTT assay; assay type: functional, cell-based
[41] = Cytotoxicity against human MCF-7 TR1 cells assessed as cell colony formation after 14 days by crystal violet staining-based assay; assay type: functional; settings: MCF-7 TR1, 336 h
MDA-MB-231 [42] = experiment: Cytotoxicity against human MDA-MB-231 cells assessed as growth inhibition at 1 uM after 5 days by MTT assay relative to vehicle-treated control; assay type: functional
MDA-MB-231 [43] = experiment: Induction of p53 consensus sequences deficient […]/WAF1 promoter activity in human MDA-MB-231 cells at 0.1 to 1 uM after 24 hrs by dual luciferase reporter gene assay; assay type: cell-based
[44] = Induction of apoptosis in human MCF10A cells assessed as DNA fragmentation at 1 uM after 48 hrs by DNA laddering assay; assay type: cell-based; settings: mcf-10a
[45] = target: T1, DNA topoisomerase 1 (Homo sapiens); experiment: Inhibition of recombinant human topoisomerase 1 assessed as relaxation of supercoiled pHOT1 at 10 uM after 30 mins by agarose gel electrophoresis
[46] = target: Cellular tumor antigen p53 (Homo sapiens) (UniProt P04637); experiment: Activation of p53 in human MCF-7 TR1 cells assessed as upregulation of […]/WAF1 gene expression at 1 uM after 48 hrs by Western blot analysis; assay type: cell-based
[47] = Induction of apoptosis in human MCF10A cells assessed as PARP proteolysis at 1 uM after 48 hrs by Western blot analysis; assay type: cell-based; settings: mcf-10a

CCCN(CCC)c1nc2c(O)cc3c4ccccc4oc3c2c(=O)[nH]1
Activity [1]: Active | pIC50 [2]: 5.92 | pIC50 [3]: 4.48 | Activity [4]: Non-toxic | pIC50 (HeLa): 6.15 | Activity [5]: Active | inhibition of growth at 1 µM (MCF7 [6]): 58% | Activity [7]: Active | Activity [8]: Active | Activity (MDA-MB-231 [9]): Dose-dependent effect | Activity (MCF7 [10]): inactive | Activity [11]: Active | Activity (MCF7 [12]): Dose-dependent effect | Activity (MDA-MB-231 [13]): inactive | Activity [14]: Non-toxic | Activity [15]: Dose-dependent effect | pIC50 (MDA-MB-231 [16]): 6.19 | Activity [17]: inactive | Activity (MDA-MB-231 [18]): Active | Activity [19]: Active | Activity (MCF7 [20]): inactive | Activity (MDA-MB-231 [21]): Active | Activity [22]: Active | Activity (MCF7 [23]): Active | Activity (MCF-7 TR1 [24]): Active | Activity (MCF7 [25]): inactive | Activity (MCF7 [26]): Active | Activity [27]: Active | inhibition [28]: Dose-dependent effect | Activity (MCF-7 TR1 [29]): Active | Activity (MCF7 [30]): Active | Activity (MCF7 [31]): inactive | Activity [32]: Active | Activity [33]: inactive | Activity (MCF-7 TR1 [34]): Active | pIC50 (Ishikawa): 6.01 | inhibition [35]: inactive | Activity (MCF-7 TR1 [36]): Active | Activity [37]: Non-toxic | pIC50 (MCF7 [38]): 6.18 | Activity (MDA-MB-231 [39]): Active | Activity [40]: Dose-dependent effect | pIC50 (HepG2): 6.05 | pIC50 [41]: 6.00 | inhibition of growth at 1 µM (MDA-MB-231 [42]; MDA-MB-231, 120 h, read-out: GI): 60% | Activity (MDA-MB-231 [43]): Active | Activity [44]: Non-toxic | inhibition [45]: inactive | Activity [46]: Active | Activity [47]: Non-toxic

CCCCN(CCCC)c1nc2c(OC)cc3c4ccccc4oc3c2c(=O)[nH]1
Activity [4]: Non-toxic | inhibition of growth at 1 µM (MCF7 [6]): 25% | growth inhibition (GI) (MDA-MB-231 [42]): Active
